Where two headings read alike, the source gives them in different places. Values belong to the compound of their own block, whether it stands above or below them.
Assays:
[1] = system: human G2 acute lymphoblastic leukemia (ALL) cells; assay: Flow cytometry cell-based assay: inhibition of soluble VCAM-1 binding to G2 ALL cells
Method: (§1) Compounds were tested for their ability to inhibit the binding of soluble VCAM-1 to human G2 acute lymphoblastic leukemia (ALL) cells. Briefly, G2 ALL cells are pre-incubated with increasing concentrations (0.001 to 1000 nM) of compounds for 30 minutes. Soluble VCAM/Fc chimera protein (R&D systems) is then added to the mixture and the cells incubated for an additional 30 minutes. Afterwards, cells are washed and VCAM-1 is detected using PE-conjugated secondary mAbs. In each experiment, an aliquot of cells will be stained with isotype control mAbs to serve as a negative control. The percentage of VCAM-1 binding cells was then determined by flow cytometry.
as §1, with “(ALL) cells or 5TGMI myeloma” for “(ALL)”, “ALL or 5TGMI” for “ALL”

[2] = system: murine HSPCs; assay: Colony forming cell (CFC/CFU) assay of mobilized peripheral blood, DBA/2 mice; assay type: in vivo; details: for amount of CFU-C cells mobilized in combination with Groβt versus inhibitor alone: DBA/2J mice, FIG. 16
Method: The VLA-4 inhibitors Examples 1220, 1221, 1224, 1610, and 1611 were prepared in DMSO/10 mM sodium bicarbonate pH 8/saline (1%/49.5%/49.5%) and injected subcutaneously (SC) at a dose of 3 mg/kg.
(§2) Peripheral blood (PB) was drawn from the facial vein without anaesthesia into K/EDTA anti-coagulated tubes (Sarstedt AG & Co, Numbrecht, Germany). Red blood cells were removed from 25 L aliquots of blood using hypotonic lysis (Ammonium-Chloride-Potassium, ACK buffer, 5-10 min at RT) and samples were mixed with 2.5 mL methylcellulose media supplemented with a cocktail of recombinant cytokines (MethoCult 3434; Stem Cell Technologies, Vancouver, BC, Canada). Cultures were plated in duplicate in 35 mm dishes and placed in a humidified chamber with 5% CO2 at 37° C. After 7 d of culture, colonies containing at least 50 cells were counted using an inverted microscope in a blinded fashion.
(§3) Recombinant human CXCL2 (Groβt; R&D systems) was reconstituted in sterile Ca^+2/Mg^+2-free phosphate buffered saline (PBS) and injected subcutaneously (SC) at a dose of 2.5 mg/kg. Firategrast (U.S. Patent Application No. 2014/051655) was dissolved in Ca^+2/Mg^+2-free PBS plus 1% ethanol and injected intravenously at a dose of 100 mg/kg. RhG-CSF (Neupogen®, Filgrastim, Amgen, Thousand Oaks, Calif., USA) diluted in PBS was injected i.p. every 12 hrs at a dose of 100 μg/kg for a total of 9 (day 5) doses.
as §2, with “Co, Nimbrecht,” for “Co, Numbrecht,”, “25 μL” for “25 L”
as §3, with “(published structure: C27H27F2NO6; U.S.” for “(U.S.”

[3] = system: LSK cells; assay: Flow cytometric enumeration of mobilized LSK cells, DBA/2J mice; assay type: in vivo; details: for LSK cell mobilization compared with firategrast: FIG. 17
Method: Peripheral blood (PB) was drawn from the facial vein without anaesthesia into K/EDTA anti-coagulated tubes (Sarstedt AG & Co, Nimbrecht, Germany). Cell counts (WBC) were determined using an automatic hemocytometer (Hemavet 950, Drew Scientific, Dallas, Tex.). Red blood cells were removed from 25 μL aliquots of blood using hypotonic lysis (Ammonium-Chloride-Potassium, ACK buffer, 5-10 min at RT). Samples were resuspended in staining buffer (PBS supplemented with 0.5% bovine serum albumin and 2 mM EDTA) and incubated for 30 min at 4° C. with pre-titrated saturating dilutions of the following fluorochrome-labeled monoclonal antibodies (BD Biosciences, San Jose, Calif.; clone designated in parenthesis): Sca1-PE (D7), CD117-BV421 (ACK2), lineage-APC (17A2, RB6-8C5, RA3-6B2, Ter-119, M/170) and CD45-A700 (30-F11). Dead cells were excluded from these assays by staining with 2 μg/mL 7-amino-actinomycin D (Molecular Probes, Eugene, Oreg.) for 5 min prior to analysis. Appropriate isotype-matched negative controls were used to assess background fluorescence intensity. Samples were analyzed on a Beckman Coulter Gallios flow cytometer and data were analyzed using FlowJo software (TreeStar, Ashland, Oreg.). Absolute numbers of immunophenotypically defined populations (e.g. LSK) were calculated by identifying CD45 positive cells as WBC from the corresponding cell count analysis. Statistical comparisons of flow cytometry data were performed using an unpaired two-tailed Student t-test (GraphPad Prism). P-values ≤0.05 were considered significant.

[4] = Table 12; inhibition of sVCAM-1 binding to human G2 ALL cells; read-out: sVCAM-1 IC50
[5] = Table 10; inhibition of sVCAM-1 binding to human G2 ALL cells; read-out: sVCAM-1 IC50
[6] = flow cytometry, FIG. 5, 8, 9, 12
[7] = Table 8; inhibition of sVCAM-1 binding to human G2 ALL cells; read-out: sVCAM-1 IC50
[8] = flow cytometry, FIG. 6, 7, 10, 11

- IC50 [1, 4]: 3.33 nM
Compound: CCOCc1cc(OC)c(-c2ccc(C[C@H](NC(=O)c3c(Cl)cccc3Cl)C(=O)O)cc2C(C)O)c(OC)c1 (stereo partly drawn) [Cmpd 12, (2S)-2-(2,6-dichlorobenzamido)-3-(4′-(ethoxymethyl)-2-(1-hydroxyethyl)-2′,6′-dimethoxy-[1,1′-biphenyl]-4-yl)propanoic acid]
- amount of CFU-C cells mobilized in combination with Groβt versus inhibitor alone [2]: nearly doubled

- IC50 [1, 4]: 0.83 nM
Compound: CCOCc1cc(OC)c(-c2ccc(C[C@H](NC(=O)[C@@H]3CCCN3S(=O)(=O)c3ccccc3)C(=O)O)cc2)c(OC)c1 [Cmpd 35, (S)-3-(4′-(ethoxymethyl)-2′,6′-dimethoxy-[1,1′-biphenyl]-4-yl)-2-((S)-1-(phenylsulfonyl)pyrrolidine-2-carboxamido)propanoic acid]
- amount of CFU-C cells mobilized in combination with Groβt versus inhibitor alone [2]: nearly doubled

Compound: CCOCc1cc(OC)c(-c2ccc(C[C@H](NC(=O)[C@@H]3CCCN3S(=O)(=O)c3cc(Cl)cc(Cl)c3)C(=O)O)cc2)c(OC)c1 [Cmpd 36, (S)-2-((S)-1-((3,5-dichlorophenyl)sulfonyl)pyrrolidine-2-carboxamido)-3-(4′-(ethoxymethyl)-2′,6′-dimethoxy-[1,1′-biphenyl]-4-yl)propanoic acid]
- IC50 ([1]; read-out: sVCAM-1 IC50; Table 12; inhibition of sVCAM-1 binding to human G2 ALL cells): 0.49 nM
- amount of CFU-C cells mobilized in combination with Groβt versus inhibitor alone [2]: nearly doubled

- IC50 [1, 5]: 0.6 nM
Compound: COc1cccc(OC)c1-c1ccc(C[C@H](NC(=O)[C@]2(C)CCCN2S(=O)(=O)c2cc(Cl)cc(Cl)c2)C(=O)O)cc1 [Compound 824]
- LSK cell mobilization compared with firategrast [3]: greater extent than firategrast
- inhibition of sVCAM-1 binding compared with Firategrast [1, 6]: significantly more potent

- IC50 [1, 5]: 0.4 nM
Compound: COc1cc(CC(=O)N[C@@H](CC(C)C)c2cc(CCC(=O)O)on2)ccc1NC(=O)Nc1ccccc1C [Compound 842]
- LSK mobilization, VLA4 blockade combined with CXCR2 stimulation ([3]; DBA2/J mice, FIG. 15/29): mobilized
- inhibition of sVCAM-1 binding compared with Firategrast [1, 6]: significantly more potent
- CFU-C mobilization, VLA4 blockade combined with CXCR2 stimulation ([2]; DBA2/J mice, FIG. 15/29): mobilized

- IC50 [1, 7]: 2.47 nM
Compound: CCOCc1cc(OC)c(-c2ccc(C[C@H](NC(=O)[C@]3(C)CCCN3S(=O)(=O)c3cc(Cl)cc(Cl)c3)C(=O)O)cc2)c(OC)c1 [Compound 1608, (S)-2-((S)-1-((3,5-dichlorophenyl)sulfonyl)-2-methylpyrrolidine-2-carboxamido)-3-(4′-(ethoxymethyl)-2′,6′-dimethoxy-[1,1′-biphenyl]-4-yl)propanoic acid]
- inhibition of sVCAM-1 binding compared with Firategrast [1, 6]: significantly more potent than Firategrast

- IC50 [1, 7]: 11.7 nM
Compound: CCOCc1cc(OC)c(-c2ccc(C[C@H](NC(=O)[C@]3(C)CCCN3S(=O)(=O)c3ccccc3)C(=O)O)cc2)c(OC)c1 [Compound 1609, (S)-3-(4′-(ethoxymethyl)-2′,6′-dimethoxy-[1,1′-biphenyl]-4-yl)-2-((S)-2-methyl-1-(phenylsulfonyl)pyrrolidine-2-carboxamido)propanoic acid]
- inhibition of sVCAM-1 binding compared with Firategrast [1, 6]: significantly more potent than Firategrast

- IC50 [1, 5]: 10 nM
Compound: COc1cccc(OC)c1-c1ccc(C[C@H](NC(=O)c2c(Cl)cccc2Cl)C(=O)O)cc1C(C)O (some centres unmarked) [Compound 1632]
- inhibition of sVCAM-1 binding compared with Firategrast [1, 6]: significantly more potent than Firategrast

- IC50 [1, 7]: 3.33 nM
Compound: CCOCc1cc(OC)c(-c2ccc(C[C@H](NC(=O)c3c(Cl)cccc3Cl)C(=O)O)cc2C(C)O)c(OC)c1 (stereo partly drawn) [Compound 1633, (2S)-2-(2,6-dichlorobenzamido)-3-(4′-(ethoxymethyl)-2-(1-hydroxyethyl)-2′,6′-dimethoxy-[1,1′-biphenyl]-4-yl)propanoic acid]
- LSK cell mobilization compared with firategrast [3]: greater extent than firategrast
- inhibition of sVCAM-1 binding compared with Firategrast [1, 6]: significantly more potent than Firategrast

- IC50 [1, 7]: 3.7 nM
Compound: COCCOCc1cc(OC)c(-c2ccc(C[C@H](NC(=O)[C@@H]3CCN3S(=O)(=O)c3ccccc3)C(=O)O)cc2)c(OC)c1 [Compound 1745, (S)-3-(2′,6′-dimethoxy-4′-((2-methoxyethoxy)methyl)-[1,1′-biphenyl]-4-yl)-2-((S)-1-(phenylsulfonyl)azetidine-2-carboxamido)propanoic acid]

- IC50 [1, 7]: 3.79 nM
Compound: COCCOCc1cc(OC)c(-c2ccc(C[C@H](NC(=O)[C@@H]3CCN3S(=O)(=O)c3cc(Cl)cc(Cl)c3)C(=O)O)cc2)c(OC)c1 [Compound 1746, (S)-2-((S)-1-((3,5-dichlorophenyl)sulfonyl)azetidine-2-carboxamido)-3-(2′,6′-dimethoxy-4′-((2-methoxyethoxy)methyl)-[1,1′-biphenyl]-4-yl)propanoic acid]
- inhibition of sVCAM-1 binding compared with other inhibitors [1, 8]: inhibition was greatest

- IC50 [1, 7]: 7.58 nM
Compound: COCCOCc1cc(OC)c(-c2ccc(C[C@H](NC(=O)[C@@H]3CCCN3S(=O)(=O)c3ccc(C(=O)O)cc3)C(=O)O)cc2)c(OC)c1 [Compound 1747, 4-(((S)-2-(((S)-1-carboxy-2-(2′,6′-dimethoxy-4′-((2-methoxyethoxy)methyl)-[1,1′-biphenyl]-4-yl)ethyl)carbamoyl)pyrrolidin-1-yl)sulfonyl)benzoic acid]

- IC50 [1, 7]: 2.06 nM
Compound: COCCOCCOCCOCc1cc(OC)c(-c2ccc(C[C@H](NC(=O)[C@@H]3CCN3S(=O)(=O)c3ccccc3)C(=O)O)cc2)c(OC)c1 [Compound 2087, (S)-3-(4′-(2,5,8,11-tetraoxadodecyl)-2′,6′-dimethoxy-[1,1′-biphenyl]-4-yl)-2-((S)-1-(phenylsulfonyl)azetidine-2-carboxamido)propanoic acid]

- IC50 [1, 7]: 0.7 nM
Compound: COCCOCCOCCOCc1cc(OC)c(-c2ccc(C[C@H](NC(=O)[C@@H]3CCN3S(=O)(=O)c3cc(Cl)cc(Cl)c3)C(=O)O)cc2)c(OC)c1 [Compound 2088, (S)-3-(4′-(2,5,8,11-tetraoxadodecyl)-2′,6′-dimethoxy-[1,1′-biphenyl]-4-yl)-2-((S)-1-((3,5-dichlorophenyl)sulfonyl)azetidine-2-carboxamido)propanoic acid]
- inhibition of sVCAM-1 binding compared with other inhibitors [1, 8]: inhibition was greatest
